In publication PMC3017127, “Survey of Tyrosine Kinase Signaling Reveals ROS Kinase Fusions in Human Cholangiocarcinoma” (PLoS ONE, 2011):

Legend:
[1] = system: T1, NPM-ALK; assay: Karpas-299 cell viability (CellTiter […] AQueous One, MTS); format: cell-based; settings: 72 h; growth read-out of human lymphoma cells with endogenous fusion; control line
T1 construct: endogenous NPM-ALK fusion in Karpas-299 cells; with Nucleophosmin

[2] = system: T2, FIG-ROS(S); assay: BaF3 cell viability (CellTiter […] AQueous One, MTS), IL-3-independent growth; format: cell-based, Mus musculus; settings: 72 h; growth read-out of cells depending on the fusion kinase; ROS phosphorylation read by Western blot in a separate 3 h test
T2 construct: gene ROS1; C-terminal Myc tag; MSCV-Neo in murine BaF3 cells; with Golgi-associated PDZ and coiled-coil motif-containing protein

[3] = system: T3, FIG-ROS(L); assay: as above; format: cell-based, Mus musculus; settings: 72 h; growth read-out of cells depending on the fusion kinase; ROS phosphorylation read by Western blot in a separate 3 h test
T3 construct: gene ROS1; C-terminal Myc tag; MSCV-Neo in murine BaF3 cells; with Golgi-associated PDZ and coiled-coil motif-containing protein

- IC50 [2]: 10 nM
- IC50 [3]: 1.8 nM
SMILES: COc1cc(N2CCC(N3CCN(C)CC3)CC2)ccc1Nc1ncc(Cl)c(Nc2ccccc2S(=O)(=O)C(C)C)n1 [TAE684]
